According to ChEMBL document CHEMBL3588841, “Synthesis and cancer cell growth inhibitory activity of icaritin derivatives” (Eur J Med Chem, 2015):

Key:
MCF7 [1] = assay: Cytotoxicity against human MCF7 cells assessed as cell viability by MTT assay; type: functional, cell-based
[2] = Cytotoxicity against human MDA-MB-435S cells assessed as cell viability by MTT assay; type: functional, cell-based
A549 [3] = assay: Cytotoxicity against human A549 cells assessed as cell viability by MTT assay; type: functional, cell-based
Vero = assay: Cytotoxicity against African green monkey Vero cells assessed as cell viability by MTT assay; type: cell-based; settings: Chlorocebus sabaeus
[4] = Chemical stability of the compound in phosphate buffered saline assessed as decomposition at pH 7; type: physicochemical; settings: read-out: Drug degradation
MCF7 [5] = assay: Ratio of icaritin to compound for human MCF7 cells assessed as cell viability by MTT assay; type: functional
[6] = Ratio of icaritin to compound for human MDA-MB-435S cells assessed as cell viability by MTT assay; type: functional
A549 [7] = assay: Ratio of icaritin to compound for human A549 cells assessed as cell viability by MTT assay; type: functional
MCF7 [8] = assay: Ratio of tamoxifen to compound for human MCF7 cells assessed as cell viability by MTT assay; type: functional
[9] = Ratio of tamoxifen to compound for human MDA-MB-435S cells assessed as cell viability by MTT assay; type: functional
A549 [10] = assay: Ratio of tamoxifen to compound for human A549 cells assessed as cell viability by MTT assay; type: functional

SMILES | IC50 (MCF7 [1]) | IC50 ([2]; Homo sapiens, MDA-MB-435S) | IC50 (A549 [3]) | IC50 (Vero) | other results
CCOC(=O)C(Oc1c(-c2ccc(OC)cc2)oc2c(CC=C(C)C)c(O)cc(O)c2c1=O)C(=O)OCC | 17.2 µM | 4.4 µM | 19.3 µM | 4.4 µM | –
COc1ccc(-c2oc3c(CC=C(C)C)c(OCCOC(=O)CCCC(=O)O)cc(O)c3c(=O)c2OCCOC(=O)CCCC(=O)O)cc1 | 3 µM | 6.3 µM | 6.1 µM | > 100 µM | degraded [4]: 7%
COc1ccc(-c2oc3c(CC=C(C)C)c(O)cc(O)c3c(=O)c2OC/C=C/C(=O)O)cc1 | 48.9 µM | 8.3 µM | 10.7 µM | 7.1 µM | –
CCOC(=O)CCCOc1c(-c2ccc(OC)cc2)oc2c(CC=C(C)C)c(O)cc(O)c2c1=O | 3 µM | 8.8 µM | 11 µM | 5.8 µM | –
COc1ccc(-c2oc3c(CC=C(C)C)c(OCCCOC(=O)CCCC(=O)O)cc(O)c3c(=O)c2OCCCOC(=O)CCCC(=O)O)cc1 | 2.2 µM | 8.1 µM | 14.3 µM | 6.3 µM | degraded [4]: 7%
CCOC(=O)/C=C/COc1c(-c2ccc(OC)cc2)oc2c(CC=C(C)C)c(O)cc(O)c2c1=O | 10.3 µM | 2.2 µM | 4.7 µM | 3.1 µM | Ratio (MCF7 [5]): 2.5; Ratio [6]: 2.5; Ratio (A549 [7]): 2.5; Ratio (MCF7 [8]): 2.5; Ratio [9]: 2.5; Ratio (A549 [10]): 2.5
CCOC(=O)/C=C/COc1cc(O)c2c(=O)c(OC/C=C/C(=O)OCC)c(-c3ccc(OC)cc3)oc2c1CC=C(C)C | > 100 µM | > 100 µM | > 100 µM | – | –
COc1ccc(-c2oc3c(CC=C(C)C)c(OCCCO)cc(O)c3c(=O)c2OCCCO)cc1 | > 100 µM | 21.8 µM | > 100 µM | – | –
CCOC(=O)COc1c(-c2ccc(OC)cc2)oc2c(CC=C(C)C)c(O)cc(O)c2c1=O | > 100 µM | 30 µM | 65.2 µM | – | –
COc1ccc(-c2oc3c(CC=C(C)C)c(OC/C=C/C(=O)O)cc(O)c3c(=O)c2O)cc1 | > 100 µM | 11.3 µM | 22.9 µM | – | –
COc1ccc(-c2oc3c(CC=C(C)C)c(OCCCC(=O)O)cc(O)c3c(=O)c2OCCCC(=O)O)cc1 | > 100 µM | 31.1 µM | 26 µM | – | –
COc1ccc(-c2oc3c(CC=C(C)C)c(OCC(=O)O)cc(O)c3c(=O)c2OCC(=O)O)cc1 | > 100 µM | > 100 µM | > 100 µM | – | –
CCOC(=O)CCCOc1cc(O)c2c(=O)c(OCCCC(=O)OCC)c(-c3ccc(OC)cc3)oc2c1CC=C(C)C | > 100 µM | > 100 µM | > 100 µM | – | –
COc1ccc(-c2oc3c(CC=C(C)C)c(OC(C)C(=O)O)cc(O)c3c(=O)c2O)cc1 (racemic) | > 100 µM | 5.7 µM | 15.3 µM | 19.3 µM | –
COc1ccc(-c2oc3c(CC=C(C)C)c(OCC(=O)O)cc(O)c3c(=O)c2O)cc1 | > 100 µM | 13.5 µM | 16.7 µM | – | –
COc1ccc(-c2oc3c(CC=C(C)C)c(OCCCC(=O)O)cc(O)c3c(=O)c2O)cc1 | > 100 µM | 12.7 µM | 19.1 µM | – | –
CCOC(=O)COc1cc(O)c2c(=O)c(OCC(=O)OCC)c(-c3ccc(OC)cc3)oc2c1CC=C(C)C | > 100 µM | > 100 µM | > 100 µM | – | –
CC/C(=C(\c1ccccc1)c1ccc(OCCN(C)C)cc1)c1ccccc1 [TAMOXIFEN] | 3.8 µM | 5.5 µM | 8.4 µM | 5.7 µM | –
CCOC(=O)CCCOc1cc(O)c2c(=O)c(O)c(-c3ccc(OC)cc3)oc2c1CC=C(C)C | > 100 µM | > 100 µM | > 100 µM | – | –

SMILES | IC50 (MCF7 [1]) | IC50 ([2]; Homo sapiens, MDA-MB-435S) | IC50 (A549 [3]) | IC50 (Vero) | other results
COc1ccc(-c2oc3c(CC=C(C)C)c(OCCO)cc(O)c3c(=O)c2OCCO)cc1 | > 100 µM | > 100 µM | > 100 µM | – | –
COc1ccc(-c2oc3c(CC=C(C)C)c(O)cc(O)c3c(=O)c2O)cc1 [ICARITIN] | 7 µM | 24.9 µM | > 100 µM | 21.6 µM | –
COc1ccc(-c2oc3c(CC=C(C)C)c(O)cc(O)c3c(=O)c2OC(C(=O)O)C(=O)O)cc1 | > 100 µM | > 100 µM | > 100 µM | – | –
COc1ccc(-c2oc3c(CC=C(C)C)c(OC(C)C(=O)O)cc(O)c3c(=O)c2OC(C)C(=O)O)cc1 (stereo in doubt; 3b) | – | – | – | – | IC50 ([2]; mda-mb-435s): 26.7 µM
COc1ccc(-c2oc3c(CC=C(C)C)c(OC/C=C/C(=O)O)cc(O)c3c(=O)c2OC/C=C/C(=O)O)cc1 | > 100 µM | 57.5 µM | > 100 µM | – | –
CCOC(=O)C(Oc1cc(O)c2c(=O)c(OC(C(=O)OCC)C(=O)OCC)c(-c3ccc(OC)cc3)oc2c1CC=C(C)C)C(=O)OCC | > 100 µM | 85 µM | > 100 µM | – | –
CCOC(=O)C(C)Oc1cc(O)c2c(=O)c(O)c(-c3ccc(OC)cc3)oc2c1CC=C(C)C (racemic) | > 100 µM | 2.5 µM | 26.5 µM | 1.4 µM | degraded [4]: 25%
CCOC(=O)C(C)Oc1cc(O)c2c(=O)c(OC(C)C(=O)OCC)c(-c3ccc(OC)cc3)oc2c1CC=C(C)C (single isomer, unassigned; diastereomer 2) | > 100 µM | > 100 µM | > 100 µM | – | –
COc1ccc(-c2oc3c(CC=C(C)C)c(O)cc(O)c3c(=O)c2OC(C)C(=O)O)cc1 (racemic) | > 100 µM | 7.5 µM | 40.7 µM | 36.6 µM | –
CCOC(=O)C(C)Oc1c(-c2ccc(OC)cc2)oc2c(CC=C(C)C)c(O)cc(O)c2c1=O (racemic) | 4.7 µM | 4.1 µM | 4.6 µM | 6.5 µM | degraded [4]: 7%
COc1ccc(-c2oc3c(CC=C(C)C)c(O)cc(O)c3c(=O)c2OCC(=O)O)cc1 | 82.5 µM | 17.8 µM | 43.4 µM | – | –
CCOC(=O)/C=C/COc1cc(O)c2c(=O)c(O)c(-c3ccc(OC)cc3)oc2c1CC=C(C)C | > 100 µM | > 100 µM | > 100 µM | – | –
COc1ccc(-c2oc3c(CC=C(C)C)c(OC(C(=O)O)C(=O)O)cc(O)c3c(=O)c2OC(C(=O)O)C(=O)O)cc1 | > 100 µM | 78.9 µM | > 100 µM | – | –
COc1ccc(-c2oc3c(CC=C(C)C)c(OC(C)C(=O)O)cc(O)c3c(=O)c2OC(C)C(=O)O)cc1 (stereo in doubt; 3c) | > 100 µM | – | > 100 µM | – | IC50 ([2]; mda-mb-435s): > 100 µM
COc1ccc(-c2oc3c(CC=C(C)C)c(OCCOC(=O)CCC(=O)O)cc(O)c3c(=O)c2OCCOC(=O)CCC(=O)O)cc1 | > 100 µM | 60.5 µM | > 100 µM | – | –
COc1ccc(-c2oc3c(CC=C(C)C)c(OCCCOC(=O)CCC(=O)O)cc(O)c3c(=O)c2OCCCOC(=O)CCC(=O)O)cc1 | > 100 µM | 6.4 µM | 18.4 µM | 14.5 µM | –
CCOC(=O)COc1cc(O)c2c(=O)c(O)c(-c3ccc(OC)cc3)oc2c1CC=C(C)C | 27.9 µM | 5.3 µM | 41.6 µM | 1.4 µM | –
COc1ccc(-c2oc3c(CC=C(C)C)c(O)cc(O)c3c(=O)c2OCCCC(=O)O)cc1 | > 100 µM | 10 µM | 23.9 µM | 55.9 µM | –
